These results are taken from article PMC9806890, “Purification and biochemical characterization of two laccase isoenzymes isolated from Trichoderma harzianum S7113 and its application for bisphenol A degradation” (Microbial Cell Factories, 2023).

One test concerns T1, Lac A (LacA).
T1 construct: 63 kDa by SDS-PAGE
Put plainly: absorbance at […] nm, Lineweaver-Burk. Type of test: biochemical, Trichoderma harzianum. To be noted: 0.1 M sodium citrate, pH 4.5; ABTS 0.025-0.4 mM; O2 co-substrate.

The test system of another test is T2, Lac B (LacB).
T2 construct: 48 kDa by SDS-PAGE
The test can be described thus: absorbance at […] nm, Lineweaver-Burk. In kind it is biochemical, Trichoderma harzianum. To be noted: 0.1 M sodium citrate, pH 4.5; ABTS 0.025-0.4 mM; O2 co-substrate.

Turning to `CCn1c(=NN=c2sc3cc(S(=O)(=O)O)ccc3n2CC)sc2cc(S(=O)(=O)O)ccc21` [ABTS, 2,2ʹ-Azinobis-(3-ethylbenzothiazoline-6-sulfonic acid)], the figures for the Km with Lac A (LacA) and with Lac B (LacB) were 100 µM and 64 µM, respectively.
